The source of these data is patent publication US7049341B2, “N-benzoylureidocinnamic acid derivatives, processes for preparing them and their use” (Aventis Pharma Deutschland GmbH, priority 2002, dated 2006).

The experiment deals with T1, Human glycogen phosphorylase a (Homo sapiens, UniProt P06737).
T1 sequence (P06737 1-847): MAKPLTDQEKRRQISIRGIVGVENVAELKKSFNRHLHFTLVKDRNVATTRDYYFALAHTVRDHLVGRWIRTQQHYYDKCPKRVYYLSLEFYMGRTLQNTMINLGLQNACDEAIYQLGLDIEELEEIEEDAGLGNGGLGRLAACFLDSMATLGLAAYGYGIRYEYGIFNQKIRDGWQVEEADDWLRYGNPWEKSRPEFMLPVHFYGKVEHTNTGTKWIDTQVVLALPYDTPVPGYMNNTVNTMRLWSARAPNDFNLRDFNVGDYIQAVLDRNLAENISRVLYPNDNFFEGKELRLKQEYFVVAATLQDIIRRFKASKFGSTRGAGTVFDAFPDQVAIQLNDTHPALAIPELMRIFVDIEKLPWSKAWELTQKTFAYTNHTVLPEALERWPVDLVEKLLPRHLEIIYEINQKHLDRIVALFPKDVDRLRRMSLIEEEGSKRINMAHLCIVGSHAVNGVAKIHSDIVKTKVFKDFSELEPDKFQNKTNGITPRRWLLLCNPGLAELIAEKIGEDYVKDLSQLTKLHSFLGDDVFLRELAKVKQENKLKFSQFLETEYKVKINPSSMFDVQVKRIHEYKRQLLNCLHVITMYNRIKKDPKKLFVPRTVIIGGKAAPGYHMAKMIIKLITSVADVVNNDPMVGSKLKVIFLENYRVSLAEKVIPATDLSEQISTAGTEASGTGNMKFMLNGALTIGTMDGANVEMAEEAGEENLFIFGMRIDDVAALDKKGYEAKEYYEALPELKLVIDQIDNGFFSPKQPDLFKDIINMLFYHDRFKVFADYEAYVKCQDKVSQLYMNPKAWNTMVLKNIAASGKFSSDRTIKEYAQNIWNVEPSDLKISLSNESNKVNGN
The experiment can be described thus: Glycogen phosphorylase a activity test (reverse direction, release of inorganic phosphate). Format: biochemical. To be noted: 10 μM concentration of the test substance; in vitro, duplicate determinations. The protocol:
Glycogen Phosphorylase a Activity Test
The effect of compounds on the activity of the active form of glycogen phosphorylase (GPa) was measured in the reverse direction by monitoring the synthesis of glycogen from glucose 1-phosphate by determining the release of inorganic phosphate. All the reactions were carried out as duplicate determinations in 96-well microtiter plates (Half Area Plates, Costar No. 3696), with the change in absorption due to the formation of the reaction product being measured, at the wavelength specified below, in a Multiscan Ascent Elisa Reader (Lab Systems, Finland). In order to measure the enzymic activity of GPa in the reverse direction, the conversion of glucose 1-phosphate into glycogen and inorganic phosphate was measured in accordance with the general method of Engers et al. (Engers H D, Shechosky S, Madsen N B, Can J Biochem 1970 July;48(7): 746–754) but with the following modifications: Human glycogen phosphorylase a (for example containing 0.76 mg of protein/ml (Aventis Pharma Deutschland GmbH), dissolved in buffer solution E (25 mM β-glycerophosphate, pH 7.0, 1 mM EDTA and 1 mM dithiothreitol), was diluted with buffer T (50 mM Hepes, pH 7.0, 100 mM KCl, 2.5 mM EDTA, 2.5 mM MgCl2.6H2O), and addition of 5 mg of glycogen/ml, to a concentration of 10 μg of protein/ml. Test substances were prepared as a 10 mM solution in DMSO and diluted down to 50 μM with buffer solution T. 10 μl of 37.5 mM glucose, dissolved in buffer solution T and 5 mg/ml of glycogen, and also 10 μl of a solution of human glycogen phosphorylase a (10 μg of protein/ml) and 20 μl of glucose 1-phosphate, 2.5 mM, were added to […] of the solution. The basal value of the activity of the glycogen phosphorylase a in the absence of test substance was determined by adding 10 μl of buffer solution T (0.1% DMSO). The mixture was incubated at room temperature for 40 minutes and the inorganic phosphate which was released was measured using the general method of Drueckes et al. (Drueckes P, Schinzel R, Palm D, Anal Biochem 1995 Sep. 1;230(1):173–177) but with the following modifications: 50 μl of a stop solution of 7.3 mM ammonium molybdate, 10.9 mM zinc acetate, 3.6% ascorbic acid, 0.9% SDS are added to 50 μl of the enzyme mixture. After 60 minutes of incubation at 45° C., the absorption was measured at 820 nm. In order to determine the background absorption, the stop solution was added immediately after adding the glucose 1-phosphate solution in a separate assay. This test was carried out using a 10 μM concentration of the test substance in order to determine the respective inhibition of glycogen phosphorylase a by the test substance in vitro.
As to `O=C(O)C=Cc1ccccc1NC(=O)NC(=O)c1cc(F)c(F)cc1Cl` [Example 2, 3-{2-[3-(2-chloro-4,5-difluorobenzoyl)ureido]phenyl}acrylic acid], the inhibition – broadly, the change of the read-out against control, counted positive when it falls – at 10 µM worked out at 101%.

On to `CC(=O)Nc1ccc(C=CC(=O)O)c(NC(=O)NC(=O)c2cc(F)c(F)cc2Cl)c1` [Example 3, 3-{4-Acetylamino-2-[3-(2-chloro-4,5-difluorobenzoyl)ureido]phenyl}acrylic acid], for which the inhibition at 10 µM was found to be 95%.

Regarding `COC(=O)C=Cc1cc(C(=O)O)ccc1NC(=O)NC(=O)c1cc(F)c(F)cc1Cl` [Example 7, 4-[3-(2-chloro-4,5-difluorobenzoyl)ureido]-3-(2-methoxycarbonylvinyl)benzoic acid], the inhibition at 10 µM came to 96%.

With `COC(=O)C=Cc1cc(C(=O)OC)ccc1NC(=O)NC(=O)c1cc(F)c(F)cc1Cl` [Example 11, Methyl 4-[3-(2-chloro-4,5-difluorobenzoyl)ureido]-3-(2-methoxycarbonylvinyl)benzoate], the inhibition at 10 µM amounted to 91%.
